Source: the supplement of paper PMC10307832

Columns and labels:
Experiment in all cases: relative viability (nuclei count vs DMSO), 5 days (fraction); higher = more cells survive
Palbociclib + Crizotinib = compound: CC(=O)c1c(C)c2cnc(Nc3ccc(N4CCNCC4)cn3)nc2n(C2CCCC2)c1=O [Palbociclib] + C[C@@H](Oc1cc(-c2cnn(C3CCNCC3)c2)cnc1N)c1c(Cl)ccc(F)c1Cl [Crizotinib] (partner 1 µM)
How it was run: (§1)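 After 5 days of treatment, lung cancer cells in 1536-well plates were fixed and stained in a single step (final 0.05% Triton X-100, 1% formaldehyde, 1 ug/ml Hoechst) and their nuclei counted on 4× images. Treatment had been applied by pin tool the day after seeding as one drug alone or as a fixed anchor-drug dose with five library-drug doses (not always all listed) in √10 steps. Relative viability is the nuclei count of treated wells divided by that of vehicle wells, and values are medians of duplicate plates.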

Palbociclib + Linsitinib = compound: CC(=O)c1c(C)c2cnc(Nc3ccc(N4CCNCC4)cn3)nc2n(C2CCCC2)c1=O [Palbociclib] + C[C@]1(O)C[C@@H](c2nc(-c3ccc4ccc(-c5ccccc5)nc4c3)c3c(N)nccn32)C1 [Linsitinib] (partner 1 µM)
How it was run: as §1

Palbociclib + Tozasertib = compound: CC(=O)c1c(C)c2cnc(Nc3ccc(N4CCNCC4)cn3)nc2n(C2CCCC2)c1=O [Palbociclib] + Cc1cc(Nc2cc(N3CCN(C)CC3)nc(Sc3ccc(NC(=O)C4CC4)cc3)n2)n[nH]1 [Tozasertib] (partner 0.1 µM)
How it was run: as §1

Palbociclib + Dasatinib = compound: CC(=O)c1c(C)c2cnc(Nc3ccc(N4CCNCC4)cn3)nc2n(C2CCCC2)c1=O [Palbociclib] + Cc1nc(Nc2ncc(C(=O)Nc3c(C)cccc3Cl)s2)cc(N2CCN(CCO)CC2)n1 [Dasatinib] (partner 0.075 µM)
How it was run: as §1

Cell Line | relative viability (Palbociclib + Crizotinib; first compound 0.01 µM) | relative viability (Palbociclib + Crizotinib; first compound 0.03162 µM) | relative viability (Palbociclib + Crizotinib; first compound 0.1 µM) | relative viability (Palbociclib + Crizotinib; first compound 0.3162 µM) | relative viability (Palbociclib + Crizotinib; first compound 1 µM) | relative viability (Palbociclib + Linsitinib; first compound 0.01 µM) | relative viability (Palbociclib + Linsitinib; first compound 0.03162 µM) | relative viability (Palbociclib + Linsitinib; first compound 0.1 µM) | relative viability (Palbociclib + Linsitinib; first compound 0.3162 µM) | relative viability (Palbociclib + Linsitinib; first compound 1 µM) | relative viability (Palbociclib + Tozasertib; first compound 0.01 µM) | relative viability (Palbociclib + Tozasertib; first compound 0.03162 µM) | relative viability (Palbociclib + Tozasertib; first compound 0.1 µM) | relative viability (Palbociclib + Tozasertib; first compound 0.3162 µM) | relative viability (Palbociclib + Tozasertib; first compound 1 µM) | relative viability (Palbociclib + Dasatinib; first compound 0.01 µM) | relative viability (Palbociclib + Dasatinib; first compound 0.03162 µM) | relative viability (Palbociclib + Dasatinib; first compound 0.1 µM) | relative viability (Palbociclib + Dasatinib; first compound 0.3162 µM) | relative viability (Palbociclib + Dasatinib; first compound 1 µM)
NCI-H1437 | 1.05 | 0.855 | 0.807 | 0.782 | 0.506 | 1.02 | 1.02 | 0.872 | 0.847 | 0.408 | 0.368 | 0.351 | 0.287 | 0.376 | 0.307 | 0.382 | 0.344 | 0.425 | 0.34 | 0.231
NCI-H1734 | 0.685 | 0.622 | 0.52 | 0.499 | 0.398 | 0.918 | 0.765 | 0.789 | 0.641 | 0.564 | 0.267 | 0.253 | 0.29 | 0.231 | 0.277 | 0.461 | 0.365 | 0.393 | 0.296 | 0.254
NCI-H2023 | 0.568 | 0.58 | 0.49 | 0.367 | 0.272 | 0.658 | 0.597 | 0.57 | 0.472 | 0.316 | 0.377 | 0.31 | 0.314 | 0.297 | 0.292 | 0.536 | 0.488 | 0.351 | 0.453 | 0.246
EMC-BAC-2 | 0.738 | 0.716 | 0.699 | 0.646 | 0.496 | 0.815 | 0.709 | 0.712 | 0.651 | 0.594 | 0.24 | 0.298 | 0.277 | 0.285 | 0.29 | 0.3 | 0.258 | 0.302 | 0.32 | 0.256
NCI-H2126 | 1.04 | 1.04 | 0.928 | 0.789 | 0.598 | 0.736 | 0.706 | 0.693 | 0.598 | 0.428 | 0.837 | 0.746 | 0.531 | 0.542 | 0.363 | 0.574 | 0.449 | 0.355 | 0.387 | 0.27
HCC-366 | 0.539 |  | 0.501 | 0.526 | 0.413 | 0.482 |  | 0.506 | 0.494 | 0.344 | 0.135 |  | 0.149 | 0.129 | 0.139 | 0.611 |  | 0.605 | 0.444 | 0.174
SW 1573 | 0.776 | 0.672 | 0.685 | 0.758 | 0.615 | 0.69 | 0.733 | 0.639 | 0.669 | 0.5 | 0.151 | 0.185 | 0.167 | 0.148 | 0.163 | 0.495 | 0.321 | 0.354 | 0.394 | 0.277
NCI-H1355 | 1.13 |  | 0.886 | 0.875 | 0.682 | 0.807 |  | 0.754 | 0.687 | 0.549 | 0.613 | 0.521 | 0.583 | 0.556 | 0.454 | 0.774 | 0.587 | 0.588 | 0.569 | 0.384
